# Several values for one entry are separate records, joined by “and”; a condition that tells them apart may be missing. Equal values may be shown once. Toxic doses and inconclusive results are not listed.
# Tested on: L1210 leukemia ip in BDF1 mice, survival T/C
# Test: NCI In Vivo Anticancer Drug Screen. Data for tumor model L1210 Leukemia (intraperitoneal) in B6D2F1 (BDF1) mice
# Conditions: higher = longer survival
# In short: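 Each compound was tested against a transplantable tumor grown in mice. The endpoint was survival, with treated animals benchmarked against vehicle controls as a simple ratio.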
compound,measurement,setting,value
CN(N=O)C(=O)NC(C=O)C(O)C(O)C(O)CO (stereo not given),T/C,"endpoint: mean survival time, dose: 3.5 mg/kg/injection, schedule: Q#A X Z (ip), vehicle: saline",108 % of control
same,T/C,"endpoint: mean survival time, dose: 4.0 mg/kg/injection, schedule: Q#A X Z (ip), vehicle: saline",105 % of control
same,T/C,"endpoint: mean survival time, dose: 5.5 mg/kg/injection, schedule: Q#A X Z (ip), vehicle: saline",116 % of control
same,T/C,"endpoint: mean survival time, dose: 6.0 mg/kg/injection, schedule: Q01DX Z (ip), vehicle: saline",105 % of control
same,T/C,"endpoint: mean survival time, dose: 6.0 mg/kg/injection, schedule: Q#A X Z (ip), vehicle: saline",103 % of control
same,T/C,"endpoint: mean survival time, dose: 8.0 mg/kg/injection, schedule: Q01DX Z (ip), vehicle: saline",97 % of control
same,T/C,"endpoint: mean survival time, dose: 8.5 mg/kg/injection, schedule: Q#A X Z (ip), vehicle: saline",118 % of control
same,T/C,"endpoint: mean survival time, dose: 9.0 mg/kg/injection, schedule: Q#A X Z (ip), vehicle: saline",106 % of control
same,T/C,"endpoint: mean survival time, dose: 12.0 mg/kg/injection, schedule: Q01DX Z (ip), vehicle: saline",105 % of control and 106 % of control
same,T/C,"endpoint: mean survival time, dose: 12.5 mg/kg/injection, schedule: Q01DX009 (ip), vehicle: saline",95 % of control and 101 % of control
same,T/C,"endpoint: mean survival time, dose: 12.5 mg/kg/injection, schedule: Q01DX Z (ip), vehicle: saline",96 % of control and 101 % of control
same,T/C,"endpoint: mean survival time, dose: 18.0 mg/kg/injection, schedule: Q01DX Z (ip), vehicle: saline",108 % of control
same,T/C,"endpoint: mean survival time, dose: 24.5 mg/kg/injection, schedule: Q01DX Z (ip), vehicle: water",111 % of control
same,T/C,"endpoint: mean survival time, dose: 25.0 mg/kg/injection, schedule: Q01DX009 (ip), vehicle: saline",101 % of control and 103 % of control
same,T/C,"endpoint: mean survival time, dose: 25.0 mg/kg/injection, schedule: Q01DX Z (im), vehicle: saline",109 % of control
same,T/C,"endpoint: mean survival time, dose: 26.0 mg/kg/injection, schedule: Q01DX Z (ip), vehicle: saline",118 % of control
same,T/C,"endpoint: mean survival time, dose: 26.0 mg/kg/injection, schedule: Q01DX Z (sc), vehicle: saline",110 % of control
same,T/C,"endpoint: mean survival time, dose: 30.0 mg/kg/injection, schedule: Q#A X Z (ip), vehicle: saline",112 % of control
same,T/C,"endpoint: mean survival time, dose: 34.0 mg/kg/injection, schedule: Q03DX005 (ip), vehicle: saline",103 % of control
same,T/C,"endpoint: mean survival time, dose: 36.0 mg/kg/injection, schedule: Q03DX003 (ip), vehicle: saline",118 % of control
same,T/C,"endpoint: mean survival time, dose: 40.0 mg/kg/injection, schedule: Q01DX009 (iv), vehicle: saline",120 % of control
same,T/C,"endpoint: mean survival time, dose: 40.0 mg/kg/injection, schedule: Q01DX Z (ip), vehicle: saline",151 % of control
same,T/C,"endpoint: mean survival time, dose: 40.0 mg/kg/injection, schedule: Q01DX Z (sc), vehicle: saline",106 % of control and 107 % of control and 112 % of control
same,T/C,"endpoint: mean survival time, dose: 50.0 mg/kg/injection, schedule: Q01DX009 (ip), vehicle: saline",110 % of control and 111 % of control
same,T/C,"endpoint: mean survival time, dose: 50.0 mg/kg/injection, schedule: Q01DX Z (im), vehicle: saline",100 % of control
same,T/C,"endpoint: mean survival time, dose: 52.0 mg/kg/injection, schedule: Q03DX005 (ip), vehicle: saline",108 % of control
same,T/C,"endpoint: mean survival time, dose: 60.0 mg/kg/injection, schedule: Q01DX009 (iv), vehicle: saline",111 % of control
same,T/C,"endpoint: mean survival time, dose: 60.0 mg/kg/injection, schedule: Q01DX Z (ip), vehicle: saline",160 % of control
same,T/C,"endpoint: mean survival time, dose: 60.0 mg/kg/injection, schedule: Q01DX Z (iv), vehicle: saline",115 % of control
same,T/C,"endpoint: mean survival time, dose: 78.0 mg/kg/injection, schedule: Q03DX005 (ip), vehicle: saline",118 % of control
same,T/C,"endpoint: mean survival time, dose: 78.0 mg/kg/injection, schedule: Q03DX 5 (iv), vehicle: saline",117 % of control
same,T/C,"endpoint: mean survival time, dose: 80.0 mg/kg/injection, schedule: Q03DX004 (ip), vehicle: saline",151 % of control
same,T/C,"endpoint: mean survival time, dose: 80.0 mg/kg/injection, schedule: Q07DX001 (ip), vehicle: saline",124 % of control
same,T/C,"endpoint: mean survival time, dose: 90.0 mg/kg/injection, schedule: Q01DX 1 (iv), vehicle: saline",118 % of control
same,T/C,"endpoint: mean survival time, dose: 90.0 mg/kg/injection, schedule: Q01DX009 (iv), vehicle: saline",115 % of control
same,T/C,"endpoint: mean survival time, dose: 90.0 mg/kg/injection, schedule: Q01DX Z (ip), vehicle: saline",152 % of control and 166 % of control
same,T/C,"endpoint: mean survival time, dose: 90.0 mg/kg/injection, schedule: Q01DX Z (iv), vehicle: saline",121 % of control
same,T/C,"endpoint: mean survival time, dose: 90.0 mg/kg/injection, schedule: Q03DX 5 (iv), vehicle: saline",114 % of control
same,T/C,"endpoint: mean survival time, dose: 90.0 mg/kg/injection, schedule: Q07DX 2 (iv), vehicle: saline",106 % of control
same,T/C,"endpoint: mean survival time, dose: 99.5 mg/kg/injection, schedule: Q01DX Z (ip), vehicle: water",111 % of control
same,T/C,"endpoint: mean survival time, dose: 100.0 mg/kg/injection, schedule: Q01DX009 (ip), vehicle: saline",101 % of control and 120 % of control
same,T/C,"endpoint: mean survival time, dose: 100.0 mg/kg/injection, schedule: Q01DX Z (im), vehicle: saline",120 % of control and 124 % of control
same,T/C,"endpoint: mean survival time, dose: 100.0 mg/kg/injection, schedule: Q01DX Z (oral), vehicle: saline",111 % of control
same,T/C,"endpoint: mean survival time, dose: 104.0 mg/kg/injection, schedule: Q01DX Z (oral), vehicle: saline",101 % of control
same,T/C,"endpoint: mean survival time, dose: 120.0 mg/kg/injection, schedule: Q01DX001 (ip), vehicle: saline",119 % of control
same,T/C,"endpoint: mean survival time, dose: 120.0 mg/kg/injection, schedule: Q01DX 1 (iv), vehicle: saline",112 % of control
same,T/C,"endpoint: mean survival time, dose: 120.0 mg/kg/injection, schedule: Q07DX 2 (iv), vehicle: saline",102 % of control
same,T/C,"endpoint: mean survival time, dose: 125.0 mg/kg/injection, schedule: Q01DX001 (ip), vehicle: saline",114 % of control
same,T/C,"endpoint: mean survival time, dose: 135.0 mg/kg/injection, schedule: Q01DX Z (iv), vehicle: saline",95 % of control
same,T/C,"endpoint: mean survival time, dose: 135.0 mg/kg/injection, schedule: Q01DX Z (sc), vehicle: saline",108 % of control and 91 % of control and 92 % of control
same,T/C,"endpoint: mean survival time, dose: 160.0 mg/kg/injection, schedule: Q01DX Z (oral), vehicle: saline",101 % of control
same,T/C,"endpoint: mean survival time, dose: 180.0 mg/kg/injection, schedule: Q01DX 1 (iv), vehicle: saline",109 % of control
same,T/C,"endpoint: mean survival time, dose: 180.0 mg/kg/injection, schedule: Q03DX Z (ip), vehicle: saline",151 % of control
same,T/C,"endpoint: mean survival time, dose: 180.0 mg/kg/injection, schedule: Q07DX 2 (iv), vehicle: saline",111 % of control
same,T/C,"endpoint: mean survival time, dose: 182.0 mg/kg/injection, schedule: Q07DX Z (ip), vehicle: saline",123 % of control
same,T/C,"endpoint: mean survival time, dose: 200.0 mg/kg/injection, schedule: Q01DX009 (ip), vehicle: saline",90 % of control
same,T/C,"endpoint: mean survival time, dose: 200.0 mg/kg/injection, schedule: Q01DX Z (im), vehicle: saline",91 % of control
same,T/C,"endpoint: mean survival time, dose: 200.0 mg/kg/injection, schedule: Q01DX Z (ip), vehicle: saline",87 % of control
same,T/C,"endpoint: mean survival time, dose: 200.0 mg/kg/injection, schedule: Q01DX Z (oral), vehicle: saline",105 % of control
same,T/C,"endpoint: mean survival time, dose: 240.0 mg/kg/injection, schedule: Q01DX Z (oral), vehicle: saline",101 % of control
same,T/C,"endpoint: mean survival time, dose: 250.0 mg/kg/injection, schedule: Q01DX001 (ip), vehicle: saline",115 % of control
same,T/C,"endpoint: mean survival time, dose: 270.0 mg/kg/injection, schedule: Q01DX 1 (iv), vehicle: saline",98 % of control
same,T/C,"endpoint: mean survival time, dose: 270.0 mg/kg/injection, schedule: Q07DX 2 (iv), vehicle: saline",106 % of control
same,T/C,"endpoint: mean survival time, dose: 400.0 mg/kg/injection, schedule: Q01DX Z (oral), vehicle: saline",117 % of control
same,T/C,"endpoint: mean survival time, dose: 405.0 mg/kg/injection, schedule: Q01DX001 (ip), vehicle: saline",108 % of control and 89 % of control
same,T/C,"endpoint: mean survival time, dose: 420.0 mg/kg/injection, schedule: Q07DX Z (ip), vehicle: saline",93 % of control
same,T/C,"endpoint: mean survival time, dose: 500.0 mg/kg/injection, schedule: Q01DX001 (ip), vehicle: saline",117 % of control
same,T/C,"endpoint: mean survival time, dose: 540.0 mg/kg/injection, schedule: Q01DX Z (oral), vehicle: saline",95 % of control
same,T/C,"endpoint: mean survival time, dose: 800.0 mg/kg/injection, schedule: Q01DX Z (oral), vehicle: saline",105 % of control
same,T/C,"endpoint: mean survival time, dose: 1000.0 mg/kg/injection, schedule: Q01DX001 (ip), vehicle: saline",97 % of control
same,T/C,"endpoint: median survival time, dose: 25.0 mg/kg/injection, schedule: Q01DX017 (ip), vehicle: water",122 % of control
same,T/C,"endpoint: median survival time, dose: 50.0 mg/kg/injection, schedule: Q01DX017 (ip), vehicle: water",150 % of control
CCCCCCCCCCCCc1ccc2c(c1)CCc1ccccc1-2,T/C,"endpoint: mean survival time, dose: 100.0 mg/kg/injection, schedule: Q01DX001 (ip), vehicle: carboxymethylcellulose (CMC)",97 % of control
same,T/C,"endpoint: mean survival time, dose: 200.0 mg/kg/injection, schedule: Q01DX001 (ip), vehicle: carboxymethylcellulose (CMC)",92 % of control
same,T/C,"endpoint: mean survival time, dose: 400.0 mg/kg/injection, schedule: Q01DX001 (ip), vehicle: carboxymethylcellulose (CMC)",90 % of control
